From PubChem BioAssay (NCI)
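Protocol summary: plate cells (96-well), add compound at 5 concentrations, incubate 48 h, interpolate endpoints linearly. TGI: total growth inhibition.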

Columns and labels:
Test in all cases: NCI tumour cell line growth inhibition, 48 h
A549 NSCLC = system: A549 NSCLC
OVCAR-8 ovarian = system: OVCAR-8 ovarian
SR leukemia = system: SR leukemia
HCT-15 colon = system: HCT-15 colon
RXF 393 renal = system: RXF 393 renal
MOLT-4 leukemia = system: MOLT-4 leukemia
HOP-92 NSCLC = system: HOP-92 NSCLC
SF-295 CNS = system: SF-295 CNS
786-0 renal = system: 786-0 renal
HCC-2998 colon = system: HCC-2998 colon
DLD-1 colon = system: DLD-1 colon
LOX IMVI melanoma = system: LOX IMVI melanoma
EKVX NSCLC = system: EKVX NSCLC
DMS 273 small cell lung = system: DMS 273 small cell lung
HOP-18 NSCLC = system: HOP-18 NSCLC
K-562 leukemia = system: K-562 leukemia
UO-31 renal = system: UO-31 renal
NCI-H226 lung = system: NCI-H226 lung
MALME-3M melanoma = system: MALME-3M melanoma
SW-620 colon = system: SW-620 colon
SK-MEL-28 melanoma = system: SK-MEL-28 melanoma
TK-10 renal = system: TK-10 renal
A498 renal = system: A498 renal
HOP-62 NSCLC = system: HOP-62 NSCLC
SNB-78 CNS = system: SNB-78 CNS
CAKI-1 renal = system: CAKI-1 renal
UACC-62 melanoma = system: UACC-62 melanoma
M14 melanoma = system: M14 melanoma
SN12C renal = system: SN12C renal
SK-MEL-5 melanoma = system: SK-MEL-5 melanoma
UACC-257 melanoma = system: UACC-257 melanoma
OVCAR-5 ovarian = system: OVCAR-5 ovarian
COLO 205 colon = system: COLO 205 colon
HCT-116 colon = system: HCT-116 colon
SK-MEL-2 melanoma = system: SK-MEL-2 melanoma
HL-60(TB) leukemia = system: HL-60(TB) leukemia
KM12 colon = system: KM12 colon
DMS 114 small cell lung = system: DMS 114 small cell lung
LXFL 529 NSCLC = system: LXFL 529 NSCLC
HT29 colon = system: HT29 colon
NCI-H23 lung = system: NCI-H23 lung
KM20L2 colon = system: KM20L2 colon
U251 CNS = system: U251 CNS
CCRF-CEM leukemia = system: CCRF-CEM leukemia
RXF-631 renal = system: RXF-631 renal
M19-MEL melanoma = system: M19-MEL melanoma
OVCAR-4 ovarian = system: OVCAR-4 ovarian
IGROV1 ovarian = system: IGROV1 ovarian
SF-268 CNS = system: SF-268 CNS
SNB-19 CNS = system: SNB-19 CNS
SK-OV-3 ovarian = system: SK-OV-3 ovarian
RPMI-8226 leukemia = system: RPMI-8226 leukemia
NCI-H460 lung = system: NCI-H460 lung
ACHN renal = system: ACHN renal
OVCAR-3 ovarian = system: OVCAR-3 ovarian
SNB-75 CNS = system: SNB-75 CNS
NCI-H522 lung = system: NCI-H522 lung
SF-539 CNS = system: SF-539 CNS

CC(=O)OC1=C2CC3(C)OC(=O)CC(C)(C)C3=CC=C2C=C(C(C)C)C1=O (stereo not given)
TGI (A549 NSCLC): 3780 nM
TGI (OVCAR-8 ovarian): 779 nM
TGI (SR leukemia): 1010 nM
TGI (HCT-15 colon): 392 nM
TGI (RXF 393 renal): 347 nM
TGI (MOLT-4 leukemia): 756 nM
TGI (HOP-92 NSCLC): 499 nM
TGI (SF-295 CNS): 3140 nM
TGI (786-0 renal): 388 nM
TGI (HCC-2998 colon): 2150 nM
TGI (DLD-1 colon): 504 nM
TGI (LOX IMVI melanoma): 425 nM
TGI (EKVX NSCLC): 3570 nM
TGI (DMS 273 small cell lung): 2650 nM
TGI (HOP-18 NSCLC): 2390 nM
TGI (K-562 leukemia): > 100000 nM
TGI (UO-31 renal): 3120 nM
TGI (NCI-H226 lung): 3260 nM
TGI (MALME-3M melanoma): 1170 nM
TGI (SW-620 colon): 1140 nM
TGI (SK-MEL-28 melanoma): 1310 nM
TGI (TK-10 renal): 2510 nM
TGI (A498 renal): 2990 nM
TGI (HOP-62 NSCLC): 19900 nM
TGI (SNB-78 CNS): 985 nM
TGI (CAKI-1 renal): 3180 nM
TGI (UACC-62 melanoma): 725 nM
TGI (M14 melanoma): 912 nM
TGI (SN12C renal): 2000 nM
TGI (SK-MEL-5 melanoma): 2120 nM
TGI (UACC-257 melanoma): 1100 nM
TGI (OVCAR-5 ovarian): 2240 nM
TGI (COLO 205 colon): 2050 nM
TGI (HCT-116 colon): 1350 nM
TGI (SK-MEL-2 melanoma): 1650 nM
TGI (HL-60(TB) leukemia): 888 nM
TGI (KM12 colon): 3070 nM
TGI (DMS 114 small cell lung): 1560 nM
TGI (LXFL 529 NSCLC): 299 nM
TGI (HT29 colon): 2730 nM
TGI (NCI-H23 lung): 1470 nM
TGI (KM20L2 colon): 3380 nM
TGI (U251 CNS): 2990 nM
TGI (CCRF-CEM leukemia): 1020 nM
TGI (RXF-631 renal): 3080 nM
TGI (M19-MEL melanoma): 1750 nM
TGI (OVCAR-4 ovarian): 915 nM
TGI (IGROV1 ovarian): 2460 nM
TGI (SF-268 CNS): 2400 nM
TGI (SNB-19 CNS): 3280 nM
TGI (SK-OV-3 ovarian): 3540 nM
TGI (RPMI-8226 leukemia): 560 nM
TGI (NCI-H460 lung): 3310 nM
TGI (ACHN renal): 1760 nM
TGI (OVCAR-3 ovarian): 2410 nM
TGI (SNB-75 CNS): 1990 nM
TGI (NCI-H522 lung): 410 nM

Cc1c(Cl)cccc1NC(=O)C(=O)C1C(=O)CC(C)(C)CC1=O
TGI (A549 NSCLC): > 100000 nM
TGI (OVCAR-8 ovarian): > 100000 nM
TGI (SR leukemia): > 100000 nM
TGI (HCT-15 colon): > 100000 nM
TGI (RXF 393 renal): > 100000 nM
TGI (MOLT-4 leukemia): > 100000 nM
TGI (HOP-92 NSCLC): > 100000 nM
TGI (SF-295 CNS): > 100000 nM
TGI (786-0 renal): > 100000 nM
TGI (HCC-2998 colon): > 100000 nM
TGI (DLD-1 colon): > 100000 nM
TGI (LOX IMVI melanoma): > 100000 nM
TGI (EKVX NSCLC): > 100000 nM
TGI (DMS 273 small cell lung): > 100000 nM
TGI (HOP-18 NSCLC): > 100000 nM
TGI (K-562 leukemia): > 100000 nM
TGI (UO-31 renal): > 100000 nM
TGI (NCI-H226 lung): > 100000 nM
TGI (MALME-3M melanoma): > 100000 nM
TGI (SW-620 colon): > 100000 nM
TGI (SK-MEL-28 melanoma): > 100000 nM
TGI (TK-10 renal): > 100000 nM
TGI (A498 renal): > 100000 nM
TGI (HOP-62 NSCLC): > 100000 nM
TGI (SNB-78 CNS): > 100000 nM
TGI (CAKI-1 renal): > 100000 nM
TGI (UACC-62 melanoma): > 100000 nM
TGI (M14 melanoma): > 100000 nM
TGI (SN12C renal): > 100000 nM
TGI (SK-MEL-5 melanoma): > 100000 nM
TGI (UACC-257 melanoma): > 100000 nM
TGI (OVCAR-5 ovarian): > 100000 nM
TGI (COLO 205 colon): > 100000 nM
TGI (SF-539 CNS): > 100000 nM
TGI (HCT-116 colon): > 100000 nM
TGI (SK-MEL-2 melanoma): > 100000 nM
TGI (HL-60(TB) leukemia): > 100000 nM
TGI (KM12 colon): > 100000 nM
TGI (DMS 114 small cell lung): > 100000 nM
TGI (LXFL 529 NSCLC): > 100000 nM
TGI (HT29 colon): > 100000 nM
TGI (NCI-H23 lung): > 100000 nM
TGI (KM20L2 colon): > 100000 nM
TGI (U251 CNS): > 100000 nM
TGI (CCRF-CEM leukemia): > 100000 nM
TGI (RXF-631 renal): > 100000 nM
TGI (M19-MEL melanoma): > 100000 nM
TGI (OVCAR-4 ovarian): > 100000 nM
TGI (IGROV1 ovarian): > 100000 nM
TGI (SF-268 CNS): > 100000 nM
TGI (SNB-19 CNS): > 100000 nM
TGI (SK-OV-3 ovarian): > 100000 nM
TGI (RPMI-8226 leukemia): > 100000 nM
TGI (NCI-H460 lung): > 100000 nM
TGI (ACHN renal): > 100000 nM
TGI (OVCAR-3 ovarian): > 100000 nM
TGI (SNB-75 CNS): > 100000 nM
TGI (NCI-H522 lung): > 100000 nM
